# Biological target: TYK2 (Homo sapiens, UniProt P29597)
# Test: TYK2 protein degradation in MOLT-4 cells by immunoblotting
# Assay type: cell-based
# Design: endogenous in cells; host or cells: MOLT-4
# Settings: MOLT-4 cells, 24 hours
# In short: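 MOLT-4 cells were exposed to compounds at 0.5 and 5 μM for 24 h, then lysed in RIPA buffer with protease and phosphatase inhibitors. TYK2 was detected by SDS-PAGE immunoblot with chemiluminescence, and band densitometry gave percent degradation.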
# Chain of TYK2 (P29597 whole entry): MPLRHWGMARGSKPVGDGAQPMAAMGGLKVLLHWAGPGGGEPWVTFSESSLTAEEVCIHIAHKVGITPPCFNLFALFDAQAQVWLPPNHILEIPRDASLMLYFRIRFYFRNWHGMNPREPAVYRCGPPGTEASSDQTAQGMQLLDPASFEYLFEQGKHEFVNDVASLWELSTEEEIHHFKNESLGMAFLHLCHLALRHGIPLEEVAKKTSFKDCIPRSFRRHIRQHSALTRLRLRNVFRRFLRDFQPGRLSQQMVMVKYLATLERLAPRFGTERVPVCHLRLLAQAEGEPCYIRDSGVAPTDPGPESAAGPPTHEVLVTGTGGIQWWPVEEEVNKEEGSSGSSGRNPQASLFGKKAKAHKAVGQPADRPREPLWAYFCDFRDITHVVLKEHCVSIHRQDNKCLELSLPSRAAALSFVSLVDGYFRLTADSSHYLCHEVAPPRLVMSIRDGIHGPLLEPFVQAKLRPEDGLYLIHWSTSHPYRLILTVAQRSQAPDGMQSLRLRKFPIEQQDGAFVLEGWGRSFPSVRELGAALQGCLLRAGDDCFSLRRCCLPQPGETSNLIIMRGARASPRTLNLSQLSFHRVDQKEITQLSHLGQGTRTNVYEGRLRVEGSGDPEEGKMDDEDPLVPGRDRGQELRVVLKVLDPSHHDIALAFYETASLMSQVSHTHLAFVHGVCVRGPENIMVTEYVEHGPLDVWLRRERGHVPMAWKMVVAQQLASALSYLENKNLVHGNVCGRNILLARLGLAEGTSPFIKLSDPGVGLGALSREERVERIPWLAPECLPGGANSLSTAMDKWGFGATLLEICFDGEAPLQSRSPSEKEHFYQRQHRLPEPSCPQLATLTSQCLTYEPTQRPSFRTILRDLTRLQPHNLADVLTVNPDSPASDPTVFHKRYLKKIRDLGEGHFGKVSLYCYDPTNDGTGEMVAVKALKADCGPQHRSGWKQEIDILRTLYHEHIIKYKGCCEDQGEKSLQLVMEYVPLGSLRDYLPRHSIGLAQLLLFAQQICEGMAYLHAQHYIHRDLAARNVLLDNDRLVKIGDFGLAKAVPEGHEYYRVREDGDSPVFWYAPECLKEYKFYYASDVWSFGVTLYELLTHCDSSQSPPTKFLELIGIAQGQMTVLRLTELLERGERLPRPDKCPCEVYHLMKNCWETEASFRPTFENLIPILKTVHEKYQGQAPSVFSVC
"TYK2 Degradation (MOLT-4, 0.5 μM)","TYK2 Degradation (MOLT-4, 5 μM)",TYK2 Degradation (0.5 μM) [%],TYK2 Degradation (5 μM) [%],SMILES
A (A: ≥60% TYK2 degradation),A (A: ≥60% TYK2 degradation),–,–,"CNC(=O)c1nnc(NC(=O)CNC(=O)CCCCCCCCCCOc2cc(-c3scnc3C)ccc2CNC(=O)[C@@H]2C[C@@H](O)CN2C(=O)[C@@H](NC(=O)C2(F)CC2)C(C)(C)C)cc1Nc1cccc(-c2ncn(C)n2)c1OC [CPD-110, 6-(2-(11-(2-(((2S,4R)-1-((S)-2-(1-fluorocyclopropane-1-carboxamido)-3,3-dimethylbutanoyl)-4-hydroxypyrrolidine-2-carboxamido)methyl)-5-(4-methylthiazol-5-yl)phenoxy)undecanamido)acetamido)-4-((2-methoxy-3-(1-methyl-1H-1,2,4-triazol-3-yl)phenyl)amino)-N-methylpyridazine-3-carboxamide]"
A (A: ≥60% TYK2 degradation),A (A: ≥60% TYK2 degradation),–,–,"CNC(=O)c1nnc(NC(=O)CNC(=O)CCCCCCCC(=O)N[C@H](C(=O)N2C[C@H](O)C[C@H]2C(=O)N[C@@H](C)c2ccc(-c3scnc3C)cc2)C(C)(C)C)cc1Nc1cccc(-c2ncn(C)n2)c1OC [CPD-084, N1-((S)-1-((2S,4R)-4-hydroxy-2-(((S)-1-(4-(4-methylthiazol-5-yl)phenyl)ethyl)carbamoyl)pyrrolidin-1-yl)-3,3-dimethyl-1-oxobutan-2-yl)-N9-(2-((5-((2-methoxy-3-(1-methyl-1H-1,2,4-triazol-3-yl)phenyl)amino)-6-(methylcarbamoyl)pyridazin-3-yl)amino)-2-oxoethyl)nonanediamide]"
–,–,≤20,≤20,"CNC(=O)c1nnc(NC(=O)CNC(=O)CCOCCNc2ccc3c(c2)C(=O)N(C2CCC(=O)NC2=O)C3=O)cc1Nc1cccc(-c2ncn(C)n2)c1OC (stereo not drawn) [CPD-061, 6-(2-(3-(2-((2-(2,6-Dioxopiperidin-3-yl)-1,3-dioxoisoindolin-5-yl)amino)ethoxy)propanamido)acetamido)-4-((2-methoxy-3-(1-methyl-1H-1,2,4-triazol-3-yl)phenyl)amino)-N-methylpyridazine-3-carboxamide]"
–,–,≤20,≤20,"CNC(=O)c1nnc(NC(=O)CNC(=O)CCOCCOCCOCCOCCNc2ccc3c(c2)C(=O)N(C2CCC(=O)NC2=O)C3=O)cc1Nc1cccc(-c2ncn(C)n2)c1OC (stereo not drawn) [CPD-064, 6-(1-((2-(2,6-Dioxopiperidin-3-yl)-1,3-dioxoisoindolin-5-yl)amino)-15-oxo-3,6,9,12-tetraoxa-16-azaoctadecan-18-amido)-4-((2-methoxy-3-(1-methyl-1H-1,2,4-triazol-3-yl)phenyl)amino)-N-methylpyridazine-3-carboxamide]"
–,–,≤20,–,"CNC(=O)c1nnc(NC(=O)C2CC2)cc1Nc1cccc(-c2ncn(CCNC(=O)CCCCNc3cccc4c3C(=O)N(C3CCC(=O)NC3=O)C4=O)n2)c1OC (stereo not drawn) [CPD-004, 6-(Cyclopropanecarboxamido)-4-((3-(1-(2-(5-((2-(2,6-dioxopiperidin-3-yl)-1,3-dioxoisoindolin-4-yl)amino)pentanamido)ethyl)-1H-1,2,4-triazol-3-yl)-2-methoxyphenyl)amino)-N-methylpyridazine-3-carboxamide]"

# Source: US20240059671A1, “TYROSINE KINASE 2 (TYK2) DEGRADATION COMPOUNDS AND METHODS OF USE” (CULLGEN (SHANGHAI), INC., priority 2020, published 2024)
